Experimental data from ChEMBL document CHEMBL1201862, “PubChem BioAssay data set” (2004).
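Step 1: Grow cells in 96-well plates. Step 2: Expose to compound for 48 hours at 5 concentrations. Step 3: Interpolate endpoints linearly; if unreached, use highest concentration. GI50: concentration for 50% inhibition of growth.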 The source made the active and inactive calls. No stated cut-off is given here; in the data, active = GI50 up to about 1.1 µM and inactive = higher.

Tests used:
Experiment in all cases: NCI anticancer screen, dose series, 48 h
A549 = test system: A549
BT-549 = test system: BT-549
DU-145 = test system: DU-145
HCT-116 = test system: HCT-116
HCT-15 = test system: HCT-15
M14 = test system: M14
MDA-N = test system: MDA-N
MOLT-4 = test system: MOLT-4
OVCAR-3 = test system: OVCAR-3
OVCAR-8 = test system: OVCAR-8
PC-3 = test system: PC-3
RXF 393 = test system: RXF 393
SF-268 = test system: SF-268
SK-MEL-28 = test system: SK-MEL-28
SK-MEL-2 = test system: SK-MEL-2
SNB-75 = test system: SNB-75
IGROV-1 = test system: IGROV-1
NCI-H226 = test system: NCI-H226
Malme-3M = test system: Malme-3M
HCC 2998 = test system: HCC 2998

Row | Compound | GI50 (A549) | GI50 (BT-549) | GI50 (DU-145) | GI50 (HCT-116) | GI50 (HCT-15) | GI50 (M14) | GI50 (MDA-N) | GI50 (MOLT-4) | GI50 (OVCAR-3) | GI50 (OVCAR-8) | GI50 (PC-3) | GI50 (RXF 393) | GI50 (SF-268) | GI50 (SK-MEL-28) | GI50 (SK-MEL-2) | GI50 (SNB-75) | GI50 (IGROV-1) | GI50 (NCI-H226) | GI50 (Malme-3M) | GI50 (HCC 2998)
1 | CCOC(=O)C1=COC(C)(CCc2ccccc2)CC1=O (centres undefined) | 40.9 µM (inactive) | 71.4 µM (inactive) | > 100 µM (inactive) | 67.9 µM (inactive) | > 100 µM | > 100 µM (inactive) | 87.7 µM (inactive) | 43.2 µM (inactive) | 80.2 µM (inactive) | 52.4 µM (inactive) | 89.1 µM (inactive) | 59.4 µM (inactive) | > 100 µM (inactive) | > 100 µM (inactive) | > 100 µM (inactive) | > 100 µM (inactive) |  |  |  | 
2 | O=c1n(CCCN2CCOCC2)nc2n1-c1ccc3ccccc3c1SC2 | 50 µM (inactive) | 30.7 µM (inactive) | 87.9 µM (inactive) | 40.8 µM (inactive) | 27.7 µM |  | 6.17 µM (inactive) | 39.3 µM (inactive) | 95.7 µM (inactive) | 64.9 µM (inactive) | 38.6 µM (inactive) | 57.7 µM (inactive) |  | 36.5 µM (inactive) | 65.8 µM (inactive) | 47.8 µM (inactive) | > 100 µM (inactive) | > 100 µM (inactive) |  | 
3 | COc1c(C)c(C/C=C(\C)CC/C=C(\C)CC/C=C(\C)CC/C=C(\C)CCC=C(C)C)c(OC)c(OC)c1OC | 17.6 µM (inactive) | 85.1 µM (inactive) | > 100 µM (inactive) | 58.3 µM (inactive) | 92 µM | 50.9 µM (inactive) | 31.4 µM (inactive) | 40.6 µM (inactive) | > 100 µM (inactive) | 18.4 µM (inactive) | 52.8 µM (inactive) | 17.4 µM (inactive) | 18.6 µM (inactive) |  | > 100 µM (inactive) | 43 µM (inactive) | 26.9 µM (inactive) |  |  | 
4 | COc1c(O)cc2c(c1O)C(=O)C(Cc1ccc(O)cc1)CO2 (centres undefined) | > 100 µM (inactive) | 46.7 µM (inactive) | > 100 µM (inactive) | 99.1 µM (inactive) | 44 µM | > 100 µM (inactive) | 32.1 µM (inactive) | 44.5 µM (inactive) | 93.1 µM (inactive) | 63.1 µM (inactive) | 41.7 µM (inactive) | > 100 µM (inactive) | > 100 µM (inactive) | 59.7 µM (inactive) | > 100 µM (inactive) | 5.79 µM (inactive) | > 100 µM (inactive) |  | > 100 µM (inactive) | 
5 | O=C(Cc1ccccc1)N/N=C/c1ccccc1O | 26.1 µM (inactive) | 27.9 µM (inactive) | 23.3 µM (inactive) | 7.55 µM (inactive) | 4.25 µM | 10.5 µM (inactive) | 21.8 µM (inactive) | 4.55 µM (inactive) | 3.36 µM (inactive) | 8.93 µM (inactive) | 82.6 µM (inactive) |  | 8.57 µM (inactive) | 40.4 µM (inactive) | > 100 µM (inactive) | 12.5 µM (inactive) | 7.85 µM (inactive) | 14.1 µM (inactive) | 12.6 µM (inactive) | 11.2 µM (inactive)
6 | CC1(C)C(=O)N=C(N)N1C(=O)OCc1ccccc1 | > 100 µM (inactive) | > 100 µM (inactive) | > 100 µM (inactive) | > 100 µM (inactive) | > 100 µM | > 100 µM (inactive) | > 100 µM (inactive) | > 100 µM (inactive) | > 100 µM (inactive) | > 100 µM (inactive) | > 100 µM (inactive) |  | > 100 µM (inactive) | > 100 µM (inactive) | > 100 µM (inactive) | > 100 µM (inactive) | > 100 µM (inactive) | > 100 µM (inactive) | > 100 µM (inactive) | > 100 µM (inactive)
